# Target: T1, full-length SARM1 (FL-SARM1) (Homo sapiens, UniProt Q6SZW1)
# T1 sequence (Q6SZW1 28-724): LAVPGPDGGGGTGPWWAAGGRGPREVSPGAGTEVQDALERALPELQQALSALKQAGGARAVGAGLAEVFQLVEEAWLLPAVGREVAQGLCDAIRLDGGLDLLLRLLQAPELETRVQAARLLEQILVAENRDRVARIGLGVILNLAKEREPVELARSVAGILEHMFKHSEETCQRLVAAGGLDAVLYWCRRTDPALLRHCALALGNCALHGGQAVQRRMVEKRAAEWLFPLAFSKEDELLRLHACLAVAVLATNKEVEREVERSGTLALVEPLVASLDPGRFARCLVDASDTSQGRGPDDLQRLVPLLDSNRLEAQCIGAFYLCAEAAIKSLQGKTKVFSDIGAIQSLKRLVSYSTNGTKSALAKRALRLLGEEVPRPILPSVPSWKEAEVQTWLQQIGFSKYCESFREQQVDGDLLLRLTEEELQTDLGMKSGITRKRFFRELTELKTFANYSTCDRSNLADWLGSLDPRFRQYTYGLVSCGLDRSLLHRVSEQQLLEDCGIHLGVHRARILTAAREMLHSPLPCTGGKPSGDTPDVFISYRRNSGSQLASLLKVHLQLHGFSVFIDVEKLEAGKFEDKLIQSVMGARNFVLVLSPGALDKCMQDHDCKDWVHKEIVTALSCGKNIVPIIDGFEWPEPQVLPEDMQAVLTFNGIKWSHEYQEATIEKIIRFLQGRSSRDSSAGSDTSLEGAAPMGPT
# Test: FL-SARM1 cellular lysate assay (NAD/NADH-Glo readout of remaining NAD+)
# Details: SARM1 cellular lysate from transfected HEK293T cells, NAD+ and NMN, 11 point curve
# Method: Preparation of full-length SARM1 (FL-SARM1) lysate: HEK293T cells (ATCC: CRL-3216) were grown on 150 mm TC-treated dishes to 80-90% confluency in complete DMEM (Thermo Fisher: 11965175) supplemented with 10% HI-FBS (VWR: 10802-772), 1× Pen/Strep (Thermo Fisher: 15140122), 1× NEAA (Thermo Fisher: 1140050), 1× glutamax (Thermo Fisher: 35050061), and 1 mM sodium pyruvate (Thermo Fisher: 11360070)) at 37° C. and 5% CO2. One hour prior to transfection, the media was replaced with fresh, 37° C. complete DMEM (20 mL per one 150 mm dish) supplemented with additional 10 mM glucose (Alfa Aesar AAJ60067EQE). Per one 150 mm dish, 30 μg FL-SARM1 (SEQ. ID. 1; cloned in-house) plasmid was dissolved in 1 mL DMEM at ambient temperature and were mixed by inverting the tube 8-10 times. 90 μL of GenJet™ in vitro DNA transfection reagent (Ver2) was dissolved in 1 mL DMEM at ambient temperature and were mixed by inverting the tube 8-10 times. The plasmid and transfection agent solutions were combined, mixed by 8-10 inversions and incubated for 10 minutes at ambient temperature. 2 mL of this transfection mixture was added to each dish containing HEK293T cells as prepared above followed by a gentle mixing of 4-5 horizontal rotations. The dishes were incubated at 37° C. and 5% CO2 for 24 h. The dishes were removed from the incubator, the medium was aspirated and the cells were scraped off using cell scrapers in ice-cold 1× PBS (5 mL/dish, Thermo Fisher Scientific 10010023). The collected cells were centrifuged at 300 g for 5 minutes at 4° C. The supernatant was aspirated and the pellet was frozen at −80° C. until needed. The cell pellet from 30 dishes was dissolved in 30 mL 1× PBS supplemented with 4 tablets of Complete, Mini EDTA-free protease inhibitor cocktail at 4° C. This mixture was sonicated on ice for 10 minutes at 50% amplitude with a 1 second on/1 second off interval using a Model 120 sonicator (Thermo Fisher Scientific, FB120110). The lysate was centrifuged at 16000 g for 10 minutes at 4° C.
# To a white 384-well Proxiplate (PerkinElmer, PE-6008280) was added 50 nL/well of a DMSO solution containing test compounds followed by 7.5 mL/well of a 0.067 mg/mL solution of SARM1 cellular lysate in reaction buffer (DPBS containing CHAPSO (0.1%) and fatty acid free BSA (0.032%)). The plate was centrifuged for 1 minute at 1000 RPM and then placed in an incubator at 23° C. for 15 minutes. To the wells were added 2.5 mL/well of a solution containing 40 mM NAD^+ and 4 mM NMN in reaction buffer. The plate was centrifuged for 1 min at 1000 RPM, the plate was sealed and placed in an incubator at 23° C. for 3.5 hours before adding 3.5 mL/well of NAD/NADH-Glo™ solution (preparation as described by Promega using the extended detection protocol). The plate was centrifuged for 1 minute at 1000 RPM and then incubated at 23° C. for 20 minutes. 1 mL/well of a 3.625 mM solution of menadione in DMSO was added and the plate was centrifuged for 1 minute at 1000 RPM. […] Percent inhibition was calculated as follows:
# IC50 values were calculated from an 11 point curve using ½ log dilutions using a four-parameter logistic regression curve fit.
SMILES,IC50 (Activity (μM)) [µM],IC50 (Activity) [µM]
"Cc1ccc(NC(=O)N2C[C@H]3C[C@@H]2CN3c2ncccn2)cc1-c1cncc(F)c1 [Example 19, (1R,4R)-N-(3-(5-fluoropyridin-3-yl)-4-methylphenyl)-5-(pyrimidin-2-yl)-2,5-diazabicyclo[2.2.1]heptane-2-carboxamide]",19.8,> 10
"Cc1ccc(NC(=O)N2[C@H](C)CCC[C@@H]2C)cc1-c1cncc(F)c1 [Example 21, cis-N-(3-(5-fluoropyridin-3-yl)-4-methylphenyl)-2,6-dimethylpiperidine-1-carboxamide]",1.5,1 to 10
"Cc1ccc(NC(=O)N2[C@H](C)CCC[C@H]2C)cc1-c1cncc(F)c1 [Example 22, (2R,6R)-N-(3-(5-fluoropyridin-3-yl)-4-methylphenyl)-2,6-dimethylpiperidine-1-carboxamide]",1.2,1 to 10
"O=C(Nc1ccc(CC(F)F)c(-c2cncc(F)c2)c1)N1C2CCCC1C2 [Example 23, N-(4-(2,2-difluoroethyl)-3-(5-fluoropyridin-3-yl)phenyl)-6-azabicyclo[3.1.1]heptane-6-carboxamide]",0.9,0.0001 to 1
"Cc1ccc(NC(=O)N2C3C[C@@H]2C[C@H](n2cccn2)C3)cc1-c1cncc(F)c1 [Example 27, cis-N-(3-(5-fluoropyridin-3-yl)-4-methylphenyl)-3-(1H-pyrazol-1-yl)-6-azabicyclo[3.1.1]heptane-6-carboxamide]",14.1,> 10
"O=C(Nc1ccc(CCF)c(-c2cncc(F)c2)c1)N1C2CCCC1C2 [Example 28, N-(4-(2-fluoroethyl)-3-(5-fluoropyridin-3-yl)phenyl)-6-azabicyclo[3.1.1]heptane-6-carboxamide]",0.8,0.0001 to 1
"Cc1ccc(NC(=O)N2C3C[C@H](OC(F)F)C[C@@H]2C3)cc1-c1cncc(F)c1 [Example 29, cis-3-(difluoromethoxy)-N-(3-(5-fluoropyridin-3-yl)-4-methylphenyl)-6-azabicyclo[3.1.1]heptane-6-carboxamide]",0.1,0.0001 to 1
"Cc1ccc(NC(=O)N2C3CC[C@H](C#N)[C@@H]2C3)cc1-c1cncc(F)c1 [Example 30, cis-2-cyano-N-(3-(5-fluoropyridin-3-yl)-4-methylphenyl)-6-azabicyclo[3.1.1]heptane-6-carboxamide]",5.5,1 to 10
"Cc1ccc(NC(=O)N2C3CC[C@H](C(=O)N(C)C)[C@@H]2C3)cc1-c1cncc(F)c1 [Example 33, cis-N^6-(3-(5-fluoropyridin-3-yl)-4-methylphenyl)-N^2,N^2-dimethyl-6-azabicyclo[3.1.1]heptane-2,6-dicarboxamide]",32.9,> 10
"Cc1ccc(NC(=O)N2C3CC[C@@H](C(=O)N(C)C)[C@@H]2C3)cc1-c1cncc(F)c1 [Example 34, trans-N^6-(3-(5-fluoropyridin-3-yl)-4-methylphenyl)-N^2,N^2-dimethyl-6-azabicyclo[3.1.1]heptane-2,6-dicarboxamide]",47.3,> 10
"Cc1ccc(NC(=O)N2C3CCCC2C3)cc1-c1cncc(OC(F)(F)F)c1 [Example 35, N-(4-methyl-3-(5-(trifluoromethoxy)pyridin-3-yl)phenyl)-6-azabicyclo[3.1.1]heptane-6-carboxamide]",0.1,0.0001 to 1
"Cc1ccc(NC(=O)N2C3C[C@@H](C#N)C[C@@H]2C3)cc1-c1cncc(F)c1 [Example 36, trans-3-cyano-N-(3-(5-fluoropyridin-3-yl)-4-methylphenyl)-6-azabicyclo[3.1.1]heptane-6-carboxamide]",0.8,0.0001 to 1
"Cc1ccc(NC(=O)N2C3CC2CC(F)(F)C3)cc1-c1cncc(F)c1 [Example 37, 3,3-difluoro-N-(3-(5-fluoropyridin-3-yl)-4-methylphenyl)-6-azabicyclo[3.1.1]heptane-6-carboxamide]",0.5,0.0001 to 1
"Cc1ccc(NC(=O)N2C3CC(=O)CC2C3)cc1-c1cncc(F)c1 [Example 38, N-(3-(5-fluoropyridin-3-yl)-4-methylphenyl)-3-oxo-6-azabicyclo[3.1.1]heptane-6-carboxamide]",2.3,1 to 10
"CCO[C@H]1CC2C[C@H](C1)N2C(=O)Nc1ccc(C)c(-c2cncc(F)c2)c1 [Example 39, trans-3-ethoxy-N-(3-(5-fluoropyridin-3-yl)-4-methylphenyl)-6-azabicyclo[3.1.1]heptane-6-carboxamide]",8.3,1 to 10
"COC(=O)[C@H]1CCC2C[C@@H]1N2C(=O)Nc1ccc(C)c(-c2cncc(F)c2)c1 [Example 40, cis-methyl 6-((3-(5-fluoropyridin-3-yl)-4-methylphenyl)carbamoyl)-6-azabicyclo[3.1.1]heptane-2-carboxylate]",20.9,> 10
"Cc1cc(F)c(NC(=O)N2C3C[C@H](C)C[C@@H]2C3)cc1-c1cncc(F)c1 [Example 41, cis-N-(2-fluoro-5-(5-fluoropyridin-3-yl)-4-methylphenyl)-3-methyl-6-azabicyclo[3.1.1]heptane-6-carboxamide]",0.04,0.0001 to 1
"C[C@@H]1CC2C[C@H](C1)N2C(=O)Nc1ccc(C(F)F)c(-c2cncc(F)c2)c1 [Example 42, cis-N-(4-(difluoromethyl)-3-(5-fluoropyridin-3-yl)phenyl)-3-methyl-6-azabicyclo[3.1.1]heptane-6-carboxamide]",0.06,0.0001 to 1
"COC[C@H]1C2CCC[C@H]1N2C(=O)Nc1ccc(C)c(-c2cncc(F)c2)c1 [Example 44, N-trans-(3-(5-fluoropyridin-3-yl)-4-methylphenyl)-7-(methoxymethyl)-6-azabicyclo[3.1.1]heptane-6-carboxamide]",17.2,> 10
"Cc1ccc(NC(=O)N2C3CCCC2C3)cc1-c1cncc(OCF)c1 [Example 45, N-(3-(5-(fluoromethoxy)pyridin-3-yl)-4-methylphenyl)-6-azabicyclo[3.1.1]heptane-6-carboxamide]",0.06,0.0001 to 1
"Cc1ccc(NC(=O)N2C3CCCC2C3)cc1-c1cncc(S(C)(=O)=O)c1 [Example 47, N-(4-methyl-3-(5-(methylsulfonyl)pyridin-3-yl)phenyl)-6-azabicyclo[3.1.1]heptane-6-carboxamide]",17,> 10
"Cc1ccc(NC(=O)N2C3CCCC2C3)cc1-c1cncc(OC(F)F)c1 [Example 48, N-(3-(5-(difluoromethoxy)pyridin-3-yl)-4-methylphenyl)-6-azabicyclo[3.1.1]heptane-6-carboxamide]",0.1,0.0001 to 1
"Cc1ccc(NC(=O)N2C3C[C@H](C#N)C[C@@H]2C3)cc1-c1cncc(F)c1 [Example 49, cis-3-cyano-N-(3-(5-fluoropyridin-3-yl)-4-methylphenyl)-6-azabicyclo[3.1.1]heptane-6-carboxamide]",0.4,0.0001 to 1
"Cc1ccc(NC(=O)N2C3CC2CC2(CC2)C3)cc1-c1cncc(F)c1 [Example 54, N-(3-(5-fluoropyridin-3-yl)-4-methylphenyl)-6-azaspiro[bicyclo[3.1.1]heptane-3,1′-cyclopropane]-6-carboxamide]",0.06,0.0001 to 1
"O=C(Nc1ccc(Cl)c(-c2cncc(F)c2)c1)N1C2C[C@H](OC(F)F)C[C@H]1C2 [Example 55, trans-N-(4-chloro-3-(5-fluoropyridin-3-yl)phenyl)-3-(difluoromethoxy)-6-azabicyclo[3.1.1]heptane-6-carboxamide]",0.3,0.0001 to 1
"Cc1ccc(NC(=O)N2C3C[C@H](OC(F)F)C[C@H]2C3)cc1-c1cncc(F)c1 [Example 56, trans-3-(difluoromethoxy)-N-(3-(5-fluoropyridin-3-yl)-4-methylphenyl)-6-azabicyclo[3.1.1]heptane-6-carboxamide]",0.09,0.0001 to 1
"COc1ccncc1-c1cc(NC(=O)N2C3CCCC2C3)ccc1C [Example 59, N-[3-(4-methoxypyridin-3-yl)-4-methylphenyl]-6-azabicyclo[3.1.1]heptane-6-carboxamide]",1.7,1 to 10
"Cc1ccc(NC(=O)N2C3CCCC2C3)cc1-c1ccc(C#N)nc1 [Example 60, N-[3-(6-cyanopyridin-3-yl)-4-methylphenyl]-6-azabicyclo[3.1.1]heptane-6-carboxamide]",8.5,1 to 10
"Cc1ccc(NC(=O)N2C3CCCC2C3)cc1-c1cccnc1C#N [Example 61, N-[3-(2-cyanopyridin-3-yl)-4-methylphenyl]-6-azabicyclo[3.1.1]heptane-6-carboxamide]",0.8,0.0001 to 1
"Cc1ccc(NC(=O)N2C3CCCC2C3)cc1-c1cnccc1C#N [Example 62, N-(3-(4-cyanopyridin-3-yl)-4-methylphenyl)-6-azabicyclo[3.1.1]heptane-6-carboxamide]",1.1,1 to 10
